Measured values taken from patent US5858687A (priority 1995, dated 1999).
“Also recorded” adds a separate entry of the source.

Key:
human melanoma cells = type: cell-based
[1] = test system: human colon carcinoma HT-29 cells; type: cell-based

SMILES: C=C(C=O)C[C@@H]1C[C@H](O)[C@]2(C)O[C@@H]3C[C@@H]4O[C@@H]5C[C@]6(C)O[C@]7(C)CC[C@@H]8O[C@@H]9C[C@]%10(C)O[C@@H]%11C(C)=CC(=O)O[C@H]%11C[C@H]%10O[C@H]9C[C@@H](C)[C@H]8O[C@H]7C[C@H]6O[C@H]5C/C=C\[C@H]4O[C@H]3C[C@H]2O1 [brevetoxin]
- response in the presence of ouabain and veratridine (human melanoma cells): does not respond; also recorded: lack of response
- response in the presence of ouabain and veratridine [1]: lack of response
